# Experimental data reported in patent US20230119502A1, “Collagen Nucleation Inhibitors” (Northeastern University, priority 2020, published 2023).
# Where two headings read alike, the source gives them in different places.
# Assays:
# [1] = Stock solutions made near maximum solubility; conditions: 37 °C, pH 5, aqueous buffer
# [2] = molecular target: T1, acetic acid-extracted bovine type I collagen (Bos taurus, UniProt P02453+P02465); format: biochemical; conditions: for critical concentration at which collagen assembly was completely inhibited / effect on collagen assembly / effect on collagen assembly kinetics and ODmax / lag time (lag phase at 30% assembly): 1 mg/mL collagen; for critical concentration at which collagen assembly was completely inhibited: 37° C., pH 7.3; for Rates of Collagen Assembly (KA), 30% to 70%: n=9, ± SD; for effect on collagen assembly: 0.5 M (each component 0.5 M for Gal with acetic acid; 0.5 M total for ratios); for effect on collagen assembly kinetics and ODmax: 0.125 M; for lag time (lag phase at 30% assembly): 0.25 M total saccharide
# T1 construct: acetic acid-extracted bovine type I collagen; purchased Advanced Biomatrix 5026-1 KIT
# T1 sequence (P02453 162-1217 limits assumed): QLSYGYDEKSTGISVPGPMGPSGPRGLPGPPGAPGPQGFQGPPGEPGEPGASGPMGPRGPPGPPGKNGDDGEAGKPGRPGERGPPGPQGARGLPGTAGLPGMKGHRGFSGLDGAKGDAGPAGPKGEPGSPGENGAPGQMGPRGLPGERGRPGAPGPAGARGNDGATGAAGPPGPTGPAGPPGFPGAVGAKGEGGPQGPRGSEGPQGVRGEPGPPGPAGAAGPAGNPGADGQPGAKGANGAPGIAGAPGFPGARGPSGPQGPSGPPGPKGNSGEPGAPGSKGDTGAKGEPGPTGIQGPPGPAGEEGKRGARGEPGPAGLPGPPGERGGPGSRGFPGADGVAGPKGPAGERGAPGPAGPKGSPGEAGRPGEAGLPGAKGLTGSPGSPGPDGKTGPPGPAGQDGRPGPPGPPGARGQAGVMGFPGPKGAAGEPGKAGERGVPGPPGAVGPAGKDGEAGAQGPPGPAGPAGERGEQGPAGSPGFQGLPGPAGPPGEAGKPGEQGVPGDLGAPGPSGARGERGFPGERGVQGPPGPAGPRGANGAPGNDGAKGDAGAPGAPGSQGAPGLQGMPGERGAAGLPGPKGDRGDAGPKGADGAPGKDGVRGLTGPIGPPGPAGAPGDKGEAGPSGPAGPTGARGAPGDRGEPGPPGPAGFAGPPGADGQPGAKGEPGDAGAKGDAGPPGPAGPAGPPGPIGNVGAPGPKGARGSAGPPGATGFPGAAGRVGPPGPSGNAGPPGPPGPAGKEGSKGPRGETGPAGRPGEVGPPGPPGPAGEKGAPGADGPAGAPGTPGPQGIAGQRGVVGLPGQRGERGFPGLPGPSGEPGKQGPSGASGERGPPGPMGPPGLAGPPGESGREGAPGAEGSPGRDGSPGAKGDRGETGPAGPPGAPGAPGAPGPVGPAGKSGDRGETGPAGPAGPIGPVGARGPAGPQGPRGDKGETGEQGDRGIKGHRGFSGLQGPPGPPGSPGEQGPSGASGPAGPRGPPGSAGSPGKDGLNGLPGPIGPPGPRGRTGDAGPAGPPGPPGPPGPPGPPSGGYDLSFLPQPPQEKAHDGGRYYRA
# T1 sequence (P02465 80-1117 limits assumed): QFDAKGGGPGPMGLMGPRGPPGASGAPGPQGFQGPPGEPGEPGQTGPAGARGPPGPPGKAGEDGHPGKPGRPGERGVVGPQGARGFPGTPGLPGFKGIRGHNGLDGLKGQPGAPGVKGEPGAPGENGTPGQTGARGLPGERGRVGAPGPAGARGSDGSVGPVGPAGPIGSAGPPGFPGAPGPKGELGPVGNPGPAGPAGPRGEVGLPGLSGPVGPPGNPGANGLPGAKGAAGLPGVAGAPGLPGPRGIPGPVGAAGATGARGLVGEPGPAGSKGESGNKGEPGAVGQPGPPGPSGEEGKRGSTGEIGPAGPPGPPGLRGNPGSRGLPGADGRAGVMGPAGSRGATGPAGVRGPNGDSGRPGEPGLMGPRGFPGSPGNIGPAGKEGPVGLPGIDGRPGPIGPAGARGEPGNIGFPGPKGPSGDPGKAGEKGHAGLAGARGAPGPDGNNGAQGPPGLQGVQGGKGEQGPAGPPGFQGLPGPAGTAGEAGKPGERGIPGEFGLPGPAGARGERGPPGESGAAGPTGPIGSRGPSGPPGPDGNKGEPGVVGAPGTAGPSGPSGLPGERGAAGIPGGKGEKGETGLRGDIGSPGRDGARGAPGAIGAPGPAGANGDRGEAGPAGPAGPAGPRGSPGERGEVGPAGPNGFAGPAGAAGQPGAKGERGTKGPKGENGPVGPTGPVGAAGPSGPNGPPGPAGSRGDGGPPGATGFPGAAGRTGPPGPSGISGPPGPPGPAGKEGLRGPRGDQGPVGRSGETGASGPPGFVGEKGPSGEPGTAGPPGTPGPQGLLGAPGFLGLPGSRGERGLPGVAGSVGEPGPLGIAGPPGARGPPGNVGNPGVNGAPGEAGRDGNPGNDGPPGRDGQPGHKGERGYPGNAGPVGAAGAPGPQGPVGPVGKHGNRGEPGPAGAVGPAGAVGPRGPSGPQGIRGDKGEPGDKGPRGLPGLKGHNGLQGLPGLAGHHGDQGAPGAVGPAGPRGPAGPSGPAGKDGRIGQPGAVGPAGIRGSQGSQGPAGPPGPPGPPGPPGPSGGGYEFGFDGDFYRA
# Method: In the experiments below, acetic acid-extracted bovine type I collagen (Advanced Biomatrix, 5026-1 KIT) was mixed with monosaccharide solutions, and/or acetic acid, such that the final collagen concentration was either 0.5 or 1 mg/mL and final saccharide concentration ranged from 0-1 M. Concentrated Tris-buffered saline (10×TBS) at 0.25 M trizma base (Sigma Aldrich, T4661) and 1.3 M sodium chloride
# (Fisher Chemical, S271-500), was used as 10% of the solution volume to maintain a physiological pH and ionic strength, and 0.25 M sodium hydroxide was used for a final pH adjustment to 7.3. Any remaining volume in the solution recipes was fulfilled via the addition of deionized water.
# Experiments included mixing collagen with a concentrated monosaccharide solution, neutralizing it, and measuring turbidity spectrophotometrically (313 nm) over the course of two hours. In the absence of monosaccharides, 1 mg/mL collagen fully polymerized within minutes, as expected (Williams, B. R., et al., 1978). […] The increased ODmax caused by the monosaccharides cannot be fully attributed to the contribution of the monosaccharides in solution (Table 2) (Hayashi & Nagai, 1972; Wood & Keech, 1960).
# To study the assembly of collagen, the kinetics of collagen assembly in the presence of monosaccharides were monitored using a plate-reader spectrophotometer (Molecular Devices, SpectraMax M5). Working in triplicate, 100 μL of the mixed collagen and saccharide solution was pipetted into a 96-well plate and layered with 100 μL of silicone oil to prevent evaporation. […] Each test condition was repeated three times for a total of n=9 data sets.
# The analyze the assembly kinetics, turbidity assays were analyzed and normalized between 0-1 using Equation 1, where OD represents the optical density.
# To analyze the kinetics, 0% assembly was defined as the absorbance value when the minimum absorbance was recorded, and 100% corresponded to the maximum value. 10, 30, 70 and 90% absorbance and corresponding timepoints were calculated using linear interpolation between the two bounding data points. Error bars were calculated as standard error of the mean. Rate of assembly was determined by calculating the slope between 30% and 70% assembly for each data set.
# [3] = carboxylic acid of GlucA; cited from earlier work
# [4] = molecular target: T2, pre-existing A546-labeled collagen network (Bos taurus, UniProt P02453+P02465); experiment: Dual-fluorescence incorporation of soluble collagen into a pre-existing collagen network (colocalization, PCC); format: biochemical, bovine; conditions: 0.5 M GlcNAc, 0.5 M Gal or 1 M GlucA; 0.025 mg/mL collagen, 1 hour, 37° C., n=10 images
# T2 construct: acetic acid-extracted bovine type I collagen; purchased Advanced Biomatrix 5026-1 KIT; host or cells: extracted from bovine tissue, then labelled in house
# T2 sequence (P02453 162-1217 limits assumed): as the sequence (P02453 162-1217 limits assumed) above
# T2 sequence (P02465 80-1117 limits assumed): as the sequence (P02465 80-1117 limits assumed) above
# Description: Collagen was fluorescently labeled by the following procedure. Collagen was amine-labeled with either Alexa Fluor 546 NHS Ester (Thermo Fisher Scientific, A20002) or Alexa Fluor 488 TFP (Thermo Fisher Scientific, A30005) according to the protocol of Paten et al. (Paten, J. A., et al., 2019). Collagen was labeled with A488 solution in a 5:1 molar ratio of A488:collagen and then purified using a 10,000 MWCO Slide-A-Lyzer dialysis cassette (Thermo Fisher Scientific, 66380). The same process was performed with A546 in a 5:1 molar ratio of A546:collagen. Prior to use, the collagen concentration was determined by a modified Lowry assay (Bio-Rad, DC-Protein Assay), and the labeling efficiency was determined according to previous reports (Paten, J. A., et al., 2019).
# To test if the critical saccharide concentrations would allow the soluble collagen to incorporate into a pre-existing matrix, despite the observed nucleation inhibition, first a collagen network was polymerized labeled with a A546 (red) at 37° C. using the example procedure described above. Then a mixture of A488-labeled collagen (green) with a nucleation-inhibiting concentration of either GlcNAc, Gal, or GlucA was added to the pre-existing A546-labeled collagen network. In all cases, distinct fibrillar networks of A488-collagen after a 1 hour incubation and exhaustive rinsing to reduce non-specific binding was observed.
# The ability for soluble collagen to incorporate into a pre-established collagen network in the presence of monosaccharides was investigated with fluorescent imaging using an inverted microscope (Nikon, ECLIPSE Ti2) with a 0.45 numerical aperture 20× objective (Nikon, MRH08230) and a CMOS camera (Andor, Zyla 4.2). […]
# The Imaging and Colocalization Analysis of the Dual-Fluorescence collagen Network was conducted using the following procedure. For imaging the A546-labeled collagen network, the excitation signal (CoolLED, PE-300-W-L-SB-40) was passed through a 530±15 nm filter, and the emission signal was detected after passing through a 575±20 nm filter (Chroma Technology, 49014). […]
# [5] = Baseline absorbance of the monosaccharide solutions without collagen; format: physicochemical; conditions: 313 nm, 37° C., no collagen, n=3
# Description: No collagen was present in these samples.
# physchem = conditions: 37 °C, pH 5, aqueous buffer
# [6] = molecular target: pre-established 1 mg/mL collagen networks (Bos taurus, UniProt P02453+P02465); conditions: 37° C., 180 minutes, critical concentration
# Sequence of pre-established 1 mg/mL collagen networks (P02453 162-1217 limits assumed): as the sequence (P02453 162-1217 limits assumed) above
# Sequence of pre-established 1 mg/mL collagen networks (P02465 80-1117 limits assumed): as the sequence (P02465 80-1117 limits assumed) above
# [7] = collagen 0.5 mg/mL, 0.25M saccharide
# [8] = collagen 1 mg/mL, 0.25M saccharide
# [9] = collagen 0.5 mg/mL, 0.125M saccharide
# [10] = collagen 1 mg/mL, 0.125M saccharide
Compound,solubility [1],critical concentration at which collagen assembly was completely inhibited [2],"Rates of Collagen Assembly (KA), 30% to 70% [2, 7]","Rates of Collagen Assembly (KA), 30% to 70% ([2]; collagen 0.5 mg/mL, 0.5M saccharide)","Rates of Collagen Assembly (KA), 30% to 70% [2, 8]","Rates of Collagen Assembly (KA), 30% to 70% ([2]; collagen 1 mg/mL, 0.5M saccharide)",pKa [3],Pearson's correlation coefficient (PCC) of incorporated A488-collagen with pre-established network [4],Baseline absorbance ([5]; 0.25M saccharide),Baseline absorbance ([5]; 0.5M saccharide),Baseline absorbance ([5]; 1M saccharide),effect on collagen assembly [2],effect on collagen assembly kinetics and ODmax [2],lag time (lag phase at 30% assembly) [2],"Rates of Collagen Assembly (KA), 30% to 70% [2, 9]","Rates of Collagen Assembly (KA), 30% to 70% [2, 10]",solubility (physchem),Baseline absorbance ([5]; 0.125M saccharide),change in the collagen network under inverted microscope [6]
"O.O=C[C@H](O)[C@@H](O)[C@H](O)[C@H](O)C(=O)[O-].[Na+] [GlucA, D-glucuronic acid sodium salt monohydrate]",~2000 mM,1 M,6.84 ± 0.47% per second,10.69 ± 0.53% per second,13.83 ± 1.10% per second,40.64 ± 2.59% per second,3.2,0.50±0.11,0.063 ± 0.000,0.082 ± 0.001,0.120 ± 0.000,–,–,–,–,–,–,–,–
"CC(=O)O [acetic acid, reference compound]",–,–,–,–,–,–,–,–,–,–,–,little impact on the early kinetics but significantly reduced the steady-state absorbance,–,–,–,–,–,–,–
"O=C[C@H](O)[C@@H](O)[C@@H](O)[C@H](O)CO [Gal, D(+)-galactose]",–,0.5 M,7.22 ± 0.89% per second,–,15.96 ± 1.39% per second,–,–,0.53±0.11,0.043 ± 0.001,0.044 ± 0.001,–,completely inhibited collagen assembly,a delay in the lag phase and growth phase and an increase in the maximum absorbance (ODmax),15 ± 0.6 min,14.28 ± 1.48% per second,28.71 ± 1.54% per second,~2000 mM,0.041 ± 0.001,minimal to no change
"CC(=O)N[C@H]1C(O)O[C@H](CO)[C@@H](O)[C@@H]1O (stereo partly drawn) [GlcNAc, N-acetyl-D-glucosamine]",–,0.5 M,6.77 ± 0.31% per second,–,8.27 ± 0.54% per second,–,–,0.66±0.10,0.074 ± 0.001,0.105 ± 0.001,–,–,a delay in the lag phase and growth phase and an increase in the maximum absorbance (ODmax),16 ± 2.5 min,13.32 ± 0.63% per second,17.91 ± 1.52% per second,~1000 mM,0.061 ± 0.001,–
